{"source": "patent US4596806A", "about": "“7-piperidino-1,2,3,5-tetrahydroimidazo[2,1-b]-quinazolin-2-one having platelet aggregation inhibitory activity” (Daiichi Seiyaku Co., Ltd., priority 1983, dated 1986)", "key": {"[1]": {"tested_on": "platelet aggregation due to addition of B16BL6 cells", "test": "Test of Inhibition of Platelet Aggregation Caused by Cancer Cells (in vitro), B16BL6", "assay_type": "cell-based, C57BL/6 mouse", "method": "(§1) Blood was taken from the abdominal vein of a 7-week-old C57BL/6 male mouse into a syringe containing 1/10 volume of a 3.13% aqueous solution of sodium citrate dihydrate as an anticoagulant. The thus prepared citrated blood sample was centrifuged at 230×g at room temperature for 7 minutes. The resulting supernatant fluid was used as PRP. The remainder was further centrifuged at 1,500×g at room temperature for 10 minutes, and the supernatant fluid was used as platelet-poor-plasma (PPP). Platelet count in PRP was adjusted to 450,000 per mm^3 by PPP. A 450 μl of PRP was placed in a reaction tube and subjected to centrifugation at 950 rpm at 30° C. About 1 minute later while continuing the centrifugation, 5 μl of a 200 mM calcium chloride aqueous solution was added to the system to a final concentration of […]. 30 seconds later, 5 μl of a saline solution of the compound (I) (dihydrochloride monohydrate) was added to the system, and additional 30 seconds later, 50 μl of a cell suspension containing 1×10^5 cells of B16 melamona BL6 (B16BL6) originated in a C57BL mouse or 50 μl of a cell suspension containing 1×10^6 cells of Lewis lung cancer (3LL) originated in a C57BL mouse was added thereto. Platelet aggregation of the sample system was determined from changes in transmittancy by use of an aggregometer. […]"}, "[2]": {"tested_on": "platelet aggregation due to addition of 3LL cells", "test": "Test of Inhibition of Platelet Aggregation Caused by Cancer Cells (in vitro), 3LL", "assay_type": "cell-based, C57BL/6 mouse", "method": "as §1"}}, "data": [{"smiles": "O=C1CN2Cc3cc(N4CCCCC4)ccc3N=C2N1", "note": "[Compound (I), 7-piperidino-1,2,3,5-tetrahydroimidazo[2,1-b]quinazolin-2-one]", "values": [{"measurement": "inhibition of platelet aggregation due to addition of B16BL6 cells", "setting": "[1]; 0.3 μM", "value": "partially inhibited"}, {"measurement": "inhibition of platelet aggregation due to addition of B16BL6 cells", "setting": "[1]; final concentration of 3 μM or more", "value": "completely inhibited"}, {"measurement": "inhibition of platelet aggregation due to addition of 3LL cells", "setting": "[2]; 0.3 μM", "value": "partially inhibited"}, {"measurement": "inhibition of platelet aggregation due to addition of 3LL cells", "setting": "[2]; final concentration of 1 μM or more", "value": "completely inhibited"}]}]}
